Data from BindingDB's records for doi:10.7270/Q2Z31X54 (Burnham Center For Chemical Genomics, 2011).

These compounds were tested against T1, Endoribonuclease toxin MazF (Escherichia coli (strain K12), UniProt P0AE70) (assay: MazF toxin RNase activators, dose response, biochemical, fluorescence, single-stranded RNA substrate, uHTS hits (AID 588481)). Details: not given.
T1 sequence (P0AE70 whole entry): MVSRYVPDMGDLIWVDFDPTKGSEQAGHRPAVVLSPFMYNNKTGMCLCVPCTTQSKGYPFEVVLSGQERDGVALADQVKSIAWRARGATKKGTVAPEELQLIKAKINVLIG
`CCC(N=Nc1cccc(C)c1)c1cnnc(SC)n1` (stereo not drawn) [MLS000705906] was tested, and the EC50 was greater than 99 µM. `CSc1nnc(N2C(=O)C(=O)C(C(=O)c3ccc(C)o3)C2c2ccc(C)cc2)s1` (stereo not drawn) [SMR000650392] gave an EC50 of 9.87 µM. `COc1cc2c(cc1OC)C(CC(=O)c1ccc([N+](=O)[O-])c(C)c1)=NCC2` [(2Z)-2-(6,7-dimethoxy-3,4-dihydro-2H-isoquinolin-1-ylidene)-1-(3-methyl-4-nitrophenyl)ethanone] showed an EC50 greater than 99 µM. With `Cc1ccc(Cl)c2c1=NC(=O)C=2NNc1ccccc1` the EC50 was 19.1 µM. In the case of `CCOc1ccc(N=CCC(=O)c2ccc(OC)cc2)c([N+](=O)[O-])c1`, the EC50 is reported as greater than 99 µM. Compound `Cc1nnc(N2C(=O)C(=O)C(C(=O)c3ccco3)C2c2ccc(C(C)(C)C)cc2)s1` (stereo not drawn) [2-(4-tert-butylphenyl)-3-(furan-2-carbonyl)-4-hydroxy-1-(5-methyl-1,3,4-thiadiazol-2-yl)-2H-pyrrol-5-one] has an EC50 greater than 99 µM. Work on `O=C(c1ccc2ccccc2n1)c1[nH][nH]c2c(O)n(-c3cccc(F)c3)c(=O)c1-2` [(3aS,6aS)-5-(3-fluorophenyl)-3-[oxo(2-quinolinyl)methyl]-3a,6a-dihydro-1H-pyrrolo[3,4-c]pyrazole-4,6-dione] yielded an EC50 of 20.5 µM. In the case of `O=C1NC(=O)N(C2CCCCC2)C(=O)C1=CCC=Nc1ccccc1` [(5Z)-5-[(E)-3-anilinoprop-2-enylidene]-1-cyclohexyl-1,3-diazinane-2,4,6-trione], the EC50 is reported as greater than 99 µM. For `Cc1ccc(NN=C2C(=O)N(CN3CCOCC3)c3ccccc32)cc1` [(3Z)-3-[(4-methylphenyl)hydrazinylidene]-1-(4-morpholinylmethyl)-2-indolone], the EC50 was 39.4 µM. With `C=c1[nH]n(-c2ccccc2)c(=O)c1=Cc1cc(C)n(C2CC2)c1C` [MLS001018445] the EC50 was greater than 99 µM. Work on `N#CC(C(=O)c1ccc([N+](=O)[O-])o1)c1nc2ccccc2[nH]1` (stereo not drawn) yielded an EC50 greater than 99 µM. `O=[N+]([O-])c1ccc(N=NCc2ccccc2)c(F)c1` [2-fluoranyl-4-nitro-N-[(phenylmethylidene)amino]aniline] gave an EC50 greater than 99 µM. In the case of `Oc1ccc2ccccc2c1C=Nn1c(O)csc1=S` [MLS002707175], the EC50 is reported as greater than 99 µM. `O=c1[nH]c(N=NCc2ccc(F)cc2)nc2ccccc12` [MLS000700887] showed an EC50 of 7.12 µM. For `CCSc1nnc(N2C(=O)C(=O)C(C(=O)c3ccco3)C2c2cccc(OC)c2)s1` (stereo not drawn) [MLS001140620], the EC50 was greater than 99 µM. `COc1ccc(CN=Nc2ccc([N+](=O)[O-])cc2S(=O)(=O)N2CCN(C)CC2)cc1` [MLS000553953] was tested, and the EC50 was greater than 99 µM. Work on `O=C1N=c2ccccc2=C1NNc1ccccc1F` yielded an EC50 greater than 99 µM. Work on `O=C1N=c2ccccc2=C1NNc1ccc(F)cc1` yielded an EC50 greater than 99 µM. `CC1CC(=O)C2=C(C1)OC(=N)C(C#N)C2c1coc2ccccc2c1=O` (stereo not drawn) gave an EC50 greater than 99 µM. `Cc1cccc(NNC2=c3cc(F)ccc3=NC2=O)c1` [MLS000673317] was tested, and the EC50 was 38.7 µM. In the case of `O=C1C(=O)N(c2nccs2)C(c2ccccc2)C1C(=O)c1cc2ccccc2o1` (stereo not drawn) [3-(1-benzofuran-2-carbonyl)-4-hydroxy-2-phenyl-1-(1,3-thiazol-2-yl)-2H-pyrrol-5-one], the EC50 is reported as greater than 99 µM. In the case of `Cc1cc(O)n(-c2ccc(NCc3ccc(Cl)cc3)c([N+](=O)[O-])c2)c1O` [1-{4-[(4-chlorobenzyl)amino]-3-nitrophenyl}-3-methylpyrrolidine-2,5-dione], the EC50 is reported as 96.1 µM. In the case of `O=[N+]([O-])c1ccc(N=NCc2cccc3ccccc23)nc1` [N-(naphthalen-1-ylmethylideneamino)-5-nitro-pyridin-2-amine], the EC50 is reported as greater than 99 µM. With `O=C1N=c2ccc(Br)cc2=C1NNc1ccc(F)cc1` [SMR000564049] the EC50 was greater than 99 µM. `COc1ccc(N=CCC(=O)c2ccc(C)cc2)cc1OC` [SMR000269732] showed an EC50 greater than 99 µM. In the case of `COc1cccc(C2=Nc3nnnn3C(c3ccc(N(C)C)cc3)C2)c1` (stereo not drawn) [4-[5-(3-methoxyphenyl)-1,7-dihydro-[1,2,3,4]tetrazolo[1,5-a]pyrimidin-7-yl]-N,N-dimethyl-aniline], the EC50 is reported as greater than 99 µM. `Cc1ccc(N/N=C2/C(=O)Nc3ccc(F)cc32)cc1` [5-fluoro-3-[2-(4-methylphenyl)hydrazono]indolin-2-one] was tested, and the EC50 was greater than 99 µM. Work on `O=C1Nc2ccccc2C1=NNc1ccccc1` [3-(phenylhydrazo)-2-indolone] yielded an EC50 greater than 99 µM. `O=c1cc2oc(O)c3cc(O)c(O)c(O)c3c-2oc1=O` [6,8,9,10-tetrahydroxypyran[3,2-c]isochromene-2,3-quinone] was tested, and the EC50 was 80.5 µM. For `CC1(C)CC(=O)C(N=Nc2cc3c(cc2[N+](=O)[O-])OCCO3)C(=O)C1` [SMR000348183], the EC50 was greater than 99 µM. `CCOc1cccc(C2C(C(=O)c3ccc(C)o3)C(=O)C(=O)N2c2nccs2)c1` (stereo not drawn) [2-(3-ethoxyphenyl)-3-(5-methylfuran-2-yl)carbonyl-4-oxidanyl-1-(1,3-thiazol-2-yl)-2H-pyrrol-5-one] gave an EC50 of 16.9 µM. Work on `O=[N+]([O-])c1cc/c(=N\c2ccccc2O)c2no[nH]c1-2` [MLS001206694] yielded an EC50 greater than 99 µM. `CCN1C(=O)C(C=NN=Cc2ccccc2)c2ccc(C3=NNC(=O)CC3)cc21` (stereo not drawn) [benzaldehyde {[1-ethyl-2-oxo-6-(6-oxo-1,4,5,6-tetrahydro-3-pyridazinyl)-1,2-dihydro-3H-indol-3-ylidene]methyl}hydrazone] gave an EC50 greater than 99 µM. Work on `N#Cc1ccc(-n2c(O)c3[nH][nH]c(C(=O)c4ccc5ccccc5n4)c-3c2=O)cc1` [4-[(3aS,6aS)-4,6-dioxo-3-[oxo(2-quinolinyl)methyl]-3a,6a-dihydro-1H-pyrrolo[3,4-c]pyrazol-5-yl]benzonitrile] yielded an EC50 of 15.1 µM. Work on `O=C1N=c2ccccc2=C1NNc1cccc(Cl)c1` [(3E)-1H-indole-2,3-dione 3-[(3-chlorophenyl)hydrazone]] yielded an EC50 greater than 99 µM. `O=[N+]([O-])c1ccc(N=NCc2ccc3c(c2)OCO3)nc1` [N-(1,3-benzodioxol-5-ylmethylideneamino)-5-nitro-pyridin-2-amine] showed an EC50 of 40.5 µM. In the case of `Cc1ccc2nc(N3C(=O)C(=O)C(C(=O)c4ccco4)C3c3cccs3)sc2c1` (stereo not drawn), the EC50 is reported as greater than 99 µM. `CCCCOc1cccc(C2C(C(=O)c3ccc(C)o3)C(=O)C(=O)N2c2nnc(C)s2)c1` (stereo not drawn) [2-(3-butoxyphenyl)-3-(5-methylfuran-2-yl)carbonyl-1-(5-methyl-1,3,4-thiadiazol-2-yl)-4-oxidanyl-2H-pyrrol-5-one] gave an EC50 greater than 99 µM. Work on `Cn1c(C(C#N)C(=O)COc2ccc3ccccc3c2)nc2ccccc21` (stereo not drawn) [(2E)-2-(3-methyl-1H-benzimidazol-2-ylidene)-4-(2-naphthalenyloxy)-3-oxobutanenitrile] yielded an EC50 greater than 99 µM. `O=C1Nc2ccc([N+](=O)[O-])cc2C1=NNc1ccc(F)cc1` gave an EC50 greater than 99 µM. Work on `COc1cc(C2c3c(-c4cccs4)n[nH]c3OC(=N)C2C#N)cc(OC)c1O` (stereo not drawn) [SMR000275523] yielded an EC50 greater than 99 µM. For `O=C(c1ccc2ccccc2n1)c1[nH][nH]c2c(O)n(-c3cccc(C(F)(F)F)c3)c(=O)c1-2` [SMR000212847], the EC50 was 47.9 µM. Work on `N=C(N)C1=CC(=O)/C(=C/C=c2ccc(=C(N)N)cc2)C=C1` [(4E)-4-[2-[4-[bis(azanyl)methylidene]cyclohexa-2,5-dien-1-ylidene]ethylidene]-3-oxidanylidene-cyclohexa-1,5-diene-1-carboximidamide;2-oxidanylethanesulfonic acid] yielded an EC50 of 4.77 µM. `COc1ccc(Nc2oc3cc(=O)ccc-3cc2C(=O)NCC2CCCO2)c(OC)c1` (stereo not drawn) [2-(2,4-dimethoxyanilino)-7-oxo-N-(2-oxolanylmethyl)-1-benzopyran-3-carboxamide] was tested, and the EC50 was greater than 99 µM. `CCCCN1C(=O)C(=NNc2ccccc2O)c2ccccc21` [(3Z)-1-butyl-3-[(2-hydroxyphenyl)hydrazinylidene]indol-2-one] showed an EC50 of 44.9 µM. Compound `CSc1ccc(C2C(C(=O)c3ccco3)C(=O)C(=O)N2c2nnc(SC)s2)cc1` (stereo not drawn) [3-(furan-2-carbonyl)-4-hydroxy-2-(4-methylsulfanylphenyl)-1-(5-methylsulfanyl-1,3,4-thiadiazol-2-yl)-2H-pyrrol-5-one] has an EC50 greater than 99 µM. `Cc1[nH]c2ccccc2c1/C=C1\N=C(c2ccc(C(F)(F)F)cc2)OC1=O` [SMR000152363] showed an EC50 greater than 99 µM. `CCN(CC)c1ccc(CN=Nc2ccc([N+](=O)[O-])cn2)cc1` [N-[[4-(diethylamino)phenyl]methylideneamino]-5-nitro-pyridin-2-amine] was tested, and the EC50 was greater than 99 µM. Compound `Cc1ccc(C2=Nc3nnnn3C(c3ccc(N(C)C)cc3)C2)cc1` (stereo not drawn) [SMR000092467] has an EC50 greater than 99 µM. `CCCN1C(=O)C(=NNc2ccc3ccccc3n2)c2ccccc21` [(3Z)-1-propyl-3-(2-quinolinylhydrazinylidene)-2-indolone] was tested, and the EC50 was greater than 99 µM. For `Cc1[nH]c2ccccc2c1/C=C1\N=C(c2ccc(F)cc2)OC1=O` [2-(4-fluorophenyl)-4-[(2-methyl-1H-indol-3-yl)methylene]-1,3-oxazol-5(4H)-one], the EC50 was greater than 99 µM. `COCc1n[nH]c2c1C(c1cc(OC)c(O)c(OC)c1)C(C#N)C(=N)O2` (stereo not drawn) [6-azanyl-4-(3,5-dimethoxy-4-oxidanyl-phenyl)-3-(methoxymethyl)-2,4-dihydropyrano[2,3-c]pyrazole-5-carbonitrile] gave an EC50 greater than 99 µM. For `Clc1cccc(C(Cc2nc3ccccc3[nH]2)N=Nc2ccccc2)c1` (stereo not drawn) [MLS000374846], the EC50 was greater than 99 µM. For `COc1ccc(C=C2CCCC(C(=O)C(F)(F)F)C2=O)cc1` (stereo not drawn) [SMR000142699], the EC50 was greater than 99 µM. For `Cc1oc(C)c2c(=O)ccc3c(c12)OC(=N)C(C#N)C3c1ccccc1` (stereo not drawn), the EC50 was greater than 99 µM. With `C=CCOc1cccc(C2C(C(=O)c3ccc(C)o3)C(=O)C(=O)N2c2nccs2)c1` (stereo not drawn) [3-(5-methylfuran-2-yl)carbonyl-4-oxidanyl-2-(3-prop-2-enoxyphenyl)-1-(1,3-thiazol-2-yl)-2H-pyrrol-5-one] the EC50 was 11.4 µM. `CCOC(=O)c1c(NC=C2C(=O)NC(=O)NC2=O)sc2c1CCC2` [ethyl 2-{[(1E)-(2,4,6-trioxohexahydropyrimidin-5-yl)methylene]amino}-5,6-dihydro-4H-cyclopenta[b]thiophene-3-carboxylate] gave an EC50 greater than 99 µM.

Same assay, conditions: inactive by the depositor's call
For `Cc1ccc(S(=O)(=O)N[N-][C+]2CCC(C(C)(C)C)CC2)cc1[N+](=O)[O-]` [SMR000241764], the EC50 was 52 µM.
